The values that follow come from patent publication US20130089502A1, “PET RADIOPHARMACEUTICALS FOR DIFFERENTIAL DIAGNOSIS BETWEEN BILATERAL AND UNILATERAL CONDITIONS OF PRIMARY HYPERALDOSTERONISM” (UNIVERSITAT DES SAARLANDES, priority 2010, published 2013).

Assay [1] deals with T1, human CYP11B1 (11β-hydroxylase) (Homo sapiens, UniProt P15538).
T1 construct: expressed in transfected cells; host or cells: Y1 cells
T1 sequence (P15538 25-503): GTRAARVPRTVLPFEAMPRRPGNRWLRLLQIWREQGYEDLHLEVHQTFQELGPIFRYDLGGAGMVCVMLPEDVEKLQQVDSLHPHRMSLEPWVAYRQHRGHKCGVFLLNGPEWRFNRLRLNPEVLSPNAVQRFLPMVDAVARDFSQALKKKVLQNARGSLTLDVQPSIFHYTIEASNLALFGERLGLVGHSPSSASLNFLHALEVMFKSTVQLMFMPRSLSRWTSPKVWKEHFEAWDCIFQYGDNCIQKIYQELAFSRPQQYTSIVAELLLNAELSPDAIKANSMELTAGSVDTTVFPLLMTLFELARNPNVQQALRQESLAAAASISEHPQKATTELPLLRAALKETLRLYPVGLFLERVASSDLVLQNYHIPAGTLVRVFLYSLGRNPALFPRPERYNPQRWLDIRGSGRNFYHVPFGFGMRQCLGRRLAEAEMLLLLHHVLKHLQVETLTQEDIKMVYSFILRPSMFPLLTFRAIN
Nature of the assay: Inhibition of human CYP11B1 expressed in Y1 cells, used for the selectivity factor versus CYP11B2. The assay is classed as cell-based. Conditions: ratio of IC50 values in hsCYP11B1- and hsCYP11B2-expressing Y1 cells; 48 hours incubation. On the procedure:
(§1) Several non-radioactive fluorinated analogs of the above radioactive tracers were prepared for testing affinity for CYP11B2 (aldosterone synthase), expressed as IC50, and selectivity for CYP11B2 over CYP11B1 (11β-hydroxylase), referred to herein as the selectivity factor, in vitro as follows:
(§2) To conduct in vitro testing of nonradioactive compounds 1a*, 1b*, 1j*, 2a*, 2c*, 2d*, and 2e* to determine IC50 values for inhibition of CYP11B1 and CYP11B2, human CYP11B1 and CYP11B2 enzymes were expressed in Y1 cells using liposome/lipid-mediated DNA transfection. To evaluate CYP11B1 and CYP11B2 inhibition, hsCYP11B1- and hsCYP11B2-expressing Y1 cells were subcultured on 6-well plates (0.5×10^6 cells/well) in 2 ml of culture medium. The enzyme reaction was started after 24 hours by the addition of 1 ml culture medium containing either 11-deoxycortisol (RSS) or 11-deoxycorticosterone (DOC) as substrate and the corresponding inhibitor. RSS and DOC were dissolved in ethanol to a final test concentration of 1 μM. For determination of IC50 values, the inhibitors were added to the culture medium at concentrations between 0.1 nM-10 μM and incubated for 48 hours. Cells which were treated in the same way but without inhibitors, served as controls. As further controls, untransfected Y1 cells were also incubated with RSS and DOC, respectively. […]

The target in assay [2] is T2, human CYP11B2 (aldosterone synthase) (Homo sapiens, UniProt P19099).
T2 construct: expressed in transfected cells; host or cells: Y1 cells
T2 sequence (P19099 25-503): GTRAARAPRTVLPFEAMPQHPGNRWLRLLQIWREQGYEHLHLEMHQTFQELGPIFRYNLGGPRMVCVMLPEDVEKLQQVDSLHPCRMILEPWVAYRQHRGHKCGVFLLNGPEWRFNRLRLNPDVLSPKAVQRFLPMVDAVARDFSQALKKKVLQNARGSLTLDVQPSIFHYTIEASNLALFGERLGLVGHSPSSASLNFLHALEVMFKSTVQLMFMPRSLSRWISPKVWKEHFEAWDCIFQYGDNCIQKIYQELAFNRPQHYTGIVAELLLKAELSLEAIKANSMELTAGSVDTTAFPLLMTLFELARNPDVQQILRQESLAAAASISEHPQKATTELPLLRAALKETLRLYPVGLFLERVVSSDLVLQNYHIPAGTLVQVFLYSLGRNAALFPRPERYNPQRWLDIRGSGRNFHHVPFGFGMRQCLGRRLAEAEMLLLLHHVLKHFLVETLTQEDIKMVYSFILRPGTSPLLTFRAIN
Nature of the assay: Inhibition of human CYP11B2 (aldosterone synthase) expressed in Y1 cells. Conditions: hsCYP11B2-expressing Y1 cells; substrate 1 μM; inhibitor 0.1 nM-10 μM; 48 hours incubation. The format is cell-based. On the procedure:
as §1, §2

One may read the IC50 as the point on the concentration scale where inhibition reaches its midpoint. A low value points to higher potency. Turning to `COc1ccc2cc(-c3cncc(OCCF)c3)ccc2c1` [Compound 1a, 3-(6-methoxy-2-naphthyl)-5-(2-fluoroethoxy)pyridine], the “Selectivity Factor (IC50 CYP11B1/IC50 CYP11B2)” value in assay [1] is 104. Also, in assay [2], 6.5 ± 3.8 nM corresponded to half-maximal inhibition (IC50).

As to `FCCOc1ccc2cc(-c3cncc4ccccc34)ccc2c1` [Compound 1j], the “Selectivity Factor (IC50 CYP11B1/IC50 CYP11B2)” value in assay [1] is listed as more than 100. The molecule further registered a half-inhibitory concentration (IC50) in assay [2] of 15.8 ± 5.1 nM.
